Test systems include BT-549; KM-20L2; SNB-78; LXFL 529; DMS-114; XF498; DLD-1; HOP-18; RXF 631.
Holding throughout (assay): NCI anticancer screen, dose series, 48 h

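A five-concentration, 48-hour dose response in 96-well plates underlies each endpoint, interpolated linearly between surrounding concentrations. Here, GI50 denotes the concentration required for 50% inhibition of growth.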 Activity calls are given as the source filed them. Rule as the data show it: active = GI50 up to about 1.1 µM and inactive = higher. Where a SMILES comes first, the peptide text is derived from it. Non-standard residues stand in square brackets, D forms with d. Residues, ends and D or L forms follow the SMILES beside them. The star is where a group is joined. *: point of attachment. Bn2Val = CC(C)[C@@H](C(=O)*)N(Cc1ccccc1)Cc1ccccc1; NH(4-Cl-benzyl) = Clc1ccc(CN*)cc1; NMeF = CN[CH](Cc1ccccc1)C(=O)O; NMeV = CN[CH](C(=O)O)C(C)C; dNMeA = CN[C@H](C)C(=O)O; Boc = CC(C)(C)OC(=O)* Where only a bound is given, the exact number is not on record here.

On to `COC1=CC(=O)c2c(c(COP(=O)(N(C)CCBr)N(C)CCBr)cn2C)C1=O`, for which the GI50 in the assay on BT-549 is 0.078 µM (active).
On the same count and under the same terms, the result for `CCN(CC)CCN1C(=O)c2cccc3cc(N)cc(c23)C1=O` reads 16.1 µM (inactive); that for `Oc1ccc(Cl)cc1Cc1cc(Cl)cc(Cc2cc(Cl)ccc2O)c1O`, 2.79 µM (inactive).
For the molecule `CCOC(=O)c1ccc(N2C(=O)Cc3ccccc3C2=O)cc1`, the GI50 in the assay on KM-20L2, in the assay with SNB-78, in the assay with LXFL 529 and with DMS-114 was > 100 µM (inactive) each time.
Take `O=C(O)c1ccc(Oc2nc3ccccc3s2)cc1`: the GI50 in the assay with BT-549 was > 100 µM (inactive).
Still for that read-out and setting: the result for `Cc1c(/N=C/C=C/c2ccccc2)c(=O)n(-c2ccccc2)n1C` reads 22.8 µM (inactive); that for `c1ccc(/C(=N/Nc2ccccn2)c2ncccn2)cc1`, 11.5 µM (inactive).
Take `CN(C)c1ccc(/C=C/C=C\c2cc(/C=C/C=C/c3ccc(N(C)C)cc3)[s+]c3ccccc23)cc1.[O-][Cl+3]([O-])([O-])[O-]`: the GI50 with KM-20L2 was > 100 µM (inactive); in the assay with SNB-78 it was 51.4 µM (inactive); with LXFL 529, 8.26 µM (inactive); with DMS-114, 11.1 µM (inactive).
Turning to `COC(=O)/C=C1\C(=O)C=C2[C@@H]3C[C@H]4C[C@H](CC[C@@]4(C)N21)C3(C)NC(C)=O` (stereo partly drawn), in the assay on BT-549, the GI50 was 11.1 µM (inactive).
Consider `COC(=O)c1cn(CCCC(=O)O)nn1`, for which, in the assay with BT-549, the GI50 was > 100 µM (inactive).
The same measure, in the same setting: the result for `COc1ccc(/C=C2\CCS(=O)(=O)c3ccccc3C2=O)cc1` reads 31.8 µM (inactive).
Regarding `COc1cc2c3c(c1OC)C1(C=CC(=O)C=C1)CC3N(C(=O)OC(C)(C)C(Cl)(Cl)Cl)CC2` (stereo not drawn), the GI50 in the assay with XF498 is 8.69 µM (inactive); in the assay on KM-20L2, 11.4 µM (inactive); with DLD-1 it was 8.45 µM (inactive); with SNB-78, 14.4 µM (inactive); in the assay with HOP-18 it was 22.8 µM (inactive); in the assay on LXFL 529 it was 8.85 µM (inactive). Besides, in the assay with DMS-114, the GI50 is 7.55 µM (inactive).
As to `O=C(N/N=C\c1ccccc1)Nc1cccc2ccccc12`, in the assay on BT-549, the GI50 is 31 µM (inactive).
Consider `CCC(C)C(=O)OC1C(=O)OC2CC3C(C)=CC(=O)C(O)C3(C)C3C4(O)OCC23C1C(C)C4O` (stereo not drawn), for which the GI50 with BT-549 was < 0.017 µM (active).
For the molecule `CC(=O)C(CN(Cc1ccccc1)Cc1ccccc1)C(c1ccccc1)c1c(O)c2ccccc2oc1=O` (stereo not drawn), the GI50 in the assay on XF498, in the assay on RXF 631, in the assay with KM-20L2, in the assay on DLD-1, in the assay on SNB-78 and in the assay on LXFL 529 was > 100 µM (inactive) throughout.
For the molecule `Cc1cc(C)[n+](CCOc2ccc(/C(=C(/Cl)c3ccccc3)c3ccccc3)cc2)c(C)c1.[O-][Cl+3]([O-])([O-])[O-]`, the GI50 is 0.256 µM (active) in the assay on XF498; 0.847 µM (active) with KM-20L2; 3.47 µM (inactive) with DLD-1; 2 µM (inactive) in the assay on SNB-78; 0.506 µM (active) in the assay on LXFL 529; 1.29 µM (inactive) in the assay with DMS-114.
Regarding `COc1ccc(-c2cc(-c3ccncc3)nc(N)c2-c2ccc(F)cc2)cc1`, the GI50 in the assay on BT-549 is 37.4 µM (inactive).
Consider `CCC1CCc2c(c(=O)oc3c2cc(OC)c2cccc(OC)c23)C1` (stereo not drawn), for which the GI50 in the assay on XF498 was 29.5 µM (inactive); in the assay with KM-20L2, > 100 µM (inactive); in the assay with DLD-1 it was 48.3 µM (inactive); in the assay on SNB-78, > 100 µM (inactive); in the assay with HOP-18 it was > 100 µM (inactive); in the assay on LXFL 529, 44 µM (inactive).
Consider `CCOC(=O)/C(=C\c1c[nH]c2ccccc12)P(=O)(OCC)OCC`, for which the GI50 in the assay with BT-549 was 25.4 µM (inactive).
On the same count and under the same terms, the result for `CNC1=C(C)C(=O)C(O)=C([C@H](C)CCC=C(C)C)C1=O` reads 52.2 µM (inactive).
Same read-out and setting: with `COc1ccc2cc(Oc3ccc(Cl)cc3)c(=O)oc2c1` the figure was > 100 µM (inactive); with `CCN(CC)c1ccc2cc(C(=O)Nc3ccccc3OC)c(=N)oc2c1`, 26.6 µM (inactive); with `C[C@H]1[C@H](C)N1CC(O)Cn1ccnc1[N+](=O)[O-]` (stereo partly drawn), > 100 µM (inactive).
As for `O=C(CCO)OCCCCCC/C=C\CCCCCC/C=C\CCCCCCCCOC(=O)CCO`, in the assay with BT-549, the GI50 is 19 µM (inactive).
Same read-out and setting: the result for `CC(C)OP(=O)(OC(C)C)/C(C#N)=C/c1c[nH]c2ccccc12` reads 31 µM (inactive); that for `CCOC(=O)C12OC(OCC)(CC1(OCC)OCC)C1(CC1)C2=O` (stereo not drawn), > 100 µM (inactive).
Take `[N-]=[N+]=Nc1cc(=O)oc2ccccc12`: the GI50 is > 100 µM (inactive) with DLD-1, > 100 µM (inactive) with HOP-18, > 100 µM (inactive) with LXFL 529 and 42.2 µM (inactive) in the assay on DMS-114.
In the case of `CC12CCC3=C(CSC4=C3CSc3ccccc34)C1=CCCC2=O` (stereo not drawn), the GI50 is 19.7 µM (inactive) in the assay on XF498; 51.6 µM (inactive) in the assay on KM-20L2; 29.4 µM (inactive) with DLD-1; 39.3 µM (inactive) with HOP-18; 37.1 µM (inactive) in the assay on LXFL 529; 69.5 µM (inactive) in the assay with DMS-114.
In the case of `S=C1SC(=N\c2ccccc2)/C(=N/c2ccccc2)N1c1ccc2ccccc2c1`, the GI50 with BT-549 was > 100 µM (inactive).
As for `O=C(O)c1ccc(NC(=O)C2C(=O)C(=O)N(c3ccc(C(=O)O)cc3)C2=O)cc1` (stereo not drawn), the GI50 in the assay on XF498, with KM-20L2, in the assay with DLD-1 and with SNB-78 was > 100 µM (inactive) throughout.
On to `O=C1C2=C(CCC2)Nc2cccc3ncn1c23`, for which the GI50 in the assay with XF498 was 34.8 µM (inactive); in the assay with KM-20L2, 41.9 µM (inactive); in the assay on DLD-1 it was 51.9 µM (inactive); in the assay on SNB-78, > 100 µM (inactive); in the assay on HOP-18, 10.6 µM (inactive); with LXFL 529, > 100 µM (inactive). Moreover, the GI50 with DMS-114 is > 100 µM (inactive).
For `CCCCCCCCC/C=C1\CCC(CN(C)C)C1=O` (stereo not drawn), the GI50 is 2.07 µM (inactive) in the assay on RXF 631; 2.18 µM (inactive) with KM-20L2; 2.06 µM (inactive) in the assay with DLD-1; 2.37 µM (inactive) with SNB-78; 1.34 µM (inactive) in the assay with LXFL 529; 2.26 µM (inactive) in the assay on DMS-114.
Consider `Cc1nn(C(=O)c2ccccc2O)c2c1C(c1ccco1)SC(=N)N2` (stereo not drawn), for which, in the assay on BT-549, the GI50 is > 10 µM (inactive).
Still for that read-out and setting: the result for `CCN1C(NN)=NS(=O)(=O)c2ccccc21` reads > 100 µM (inactive).
Take `O=C(O)C(CS)NCc1c2ccccc2nc2ccccc12` (stereo not drawn): the GI50 in the assay on XF498 is 15.5 µM (inactive); in the assay with RXF 631 it was 22.3 µM (inactive); in the assay on KM-20L2, 41.6 µM (inactive); with DLD-1 it was 24.4 µM (inactive); in the assay on LXFL 529 it was 39.7 µM (inactive).
Take `COC(=O)N1CC[C@@H]2CCC=C(c3cccc4c3OCO4)[C@@H]21`: the GI50 in the assay with BT-549 is 81.5 µM (inactive).
Same read-out and setting: the result for `CCOC(=O)c1[nH]cc(C)c1-c1ccn(-c2ccccc2)c1` reads 43.4 µM (inactive).
Take `COc1cccc2c1OCC1Cc3ccccc3OC21` (stereo not drawn): in the assay with BT-549, the GI50 is 19.1 µM (inactive).
As to `CCCCOCCOCCOC1=CC(=O)c2c(O)ccc(O)c2C1=O`, the GI50 in the assay with BT-549 was 1.77 µM (inactive).
Regarding `O=C1c2ccccc2C(=O)c2[nH]c(Cc3ccccc3F)nc21`, the GI50 is 53.1 µM (inactive) with XF498; 33.9 µM (inactive) in the assay with KM-20L2; 16.1 µM (inactive) in the assay with DLD-1; 93.8 µM (inactive) with HOP-18; 31.9 µM (inactive) in the assay with LXFL 529; 33.7 µM (inactive) with DMS-114.
On to `N#CCCN(CCCN(C(=O)N(c1ccccc1)c1ccccc1)c1ccccc1)C(=O)Nc1ccccc1`, for which the GI50 in the assay on BT-549 is > 100 µM (inactive).
The same measure, in the same setting: the result for `O=C1CC(n2ccnc2)c2c(Cl)sc(Cl)c21` (stereo not drawn) reads 15.3 µM (inactive).
`COC(=O)C1CCc2c(OC)ccc(OC)c2C1=O` (stereo not drawn): the GI50 in the assay on KM-20L2, in the assay with DLD-1, in the assay with SNB-78, in the assay with HOP-18, in the assay on LXFL 529 and in the assay on DMS-114 was > 100 µM (inactive) in each case.
Consider `O=C(O)C1(Cc2ccccc2)Cc2ccccc2C1`, for which the GI50 in the assay on BT-549 is > 100 µM (inactive).
Still for that read-out and setting: with `CCOC(=O)Oc1cc2c(ccn2C)c2c1c1ccccc1n2C(=O)OCC` the figure was > 100 µM (inactive); with `COC(=O)c1ccc(/C=C/C2=CC(=O)C=CC2=O)cc1`, 5.81 µM (inactive); with `CC1=C(C(=O)OC2CC3CCC2(C)C3(C)C)C2Nc3ccccc3N(C)C2O1` (stereo not drawn), 2.34 µM (inactive).
Same read-out and setting: with `O=C(Nc1ccccc1)c1cc(S(=O)(=O)n2ccnc2O)c(S)cc1Cl` the figure was > 100 µM (inactive); with `CCCCCCCCCCCCCCCCOc1ccc(/C=C/C2=[N+](CCCl)CCO2)cc1`, > 100 µM (inactive).
Same read-out and setting: with `Cc1oc(N)c(S(=O)(=O)c2ccc(Cl)cc2)c1C` the figure was 17.6 µM (inactive).
`C[C@H]1SC(c2ccc(Cl)cc2Cl)N(NC(=O)c2ccncc2)C1=O` (stereo partly drawn): in the assay on BT-549, the GI50 was 36.6 µM (inactive).
On the same count and under the same terms, the result for `C[N+](C)(CCCCCC[N+](C)(C)CCCN1C(=O)c2cccc3cccc(c23)C1=O)CCCN1C(=O)c2cccc3cccc(c23)C1=O` reads > 100 µM (inactive).
In the case of `COc1ccc(C2C(Cl)C(=O)N2NC(=O)c2ccccc2O)cc1OC` (stereo not drawn), the GI50 with XF498 is 15.5 µM (inactive); with DLD-1, > 100 µM (inactive); in the assay with SNB-78, > 100 µM (inactive); in the assay on LXFL 529 it was > 10 µM (inactive); in the assay with DMS-114, 41.1 µM (inactive).
`O=C(CCN1CCCCC1)Nc1ccc2sc3ccccc3c(=O)c2n1`: the GI50 with BT-549 was 15.5 µM (inactive).
Same read-out and setting: with `O=C(NC1CCN(Cc2ccccc2)CC1)c1ccccc1I` the figure was 51.1 µM (inactive); with `CC(C)[C@H](NC(=O)[C@H](C(C)C)N(Cc1ccccc1)Cc1ccccc1)C(=O)N(C)[C@H](C(=O)N1CCC[C@H]1C(=O)N(C)[C@H](C)C(=O)NCc1ccc(Cl)cc1)C(C)C` (Bn2Val-V[NMeV]P[dNMeA]-{NH(4-Cl-benzyl)}), 3.18 µM (inactive); with `CCOC(=O)C(CC(C)C)NC(=O)C(Cc1ccccc1)NC(=O)CNC(=O)OC(C)(C)C` (stereo not drawn) (Boc-Gly-Phe-Leu-OEt; configuration not given here), 27.7 µM (inactive).
For `CC(C)C(NC(=O)OC(C)(C)C)C(=O)N(C)C(Cc1ccccc1)C(=O)N(C)C(C(=O)N(C)C(C(=O)O)C(C)C)C(C)C` (stereo not drawn) (Boc-V[NMeF][NMeV][NMeV]-OH; configuration not given here), the GI50 with XF498, in the assay on KM-20L2, in the assay with LXFL 529 and in the assay with DMS-114 was > 100 µM (inactive) each time.
